Source: patent US11993664B2, “Crystalline form of compound and uses thereof in medicine” (priority 2018, dated 2024)
“And” between values parts separate entries of the source, which are not always exact repeats. Identical values can stand only once. Like-named read-outs stand apart in the source and are kept apart here.

How the values were obtained:
[1] = design: species or system beagle dogs; conditions: dog
Experimental: Pharmacokinetic test of compounds in beagle dogs (weigh: 10-12 kg, male, age: 10-12 months, three members in each oral group and intravenous group) was shown as follows.
Beagle dogs received test compounds at a dose of 2.5 mg/kg or 5 mg/kg by oral gavage or at a dose of 1 mg/kg or 2 mg/kg by intravenous injection.
Blood samples of vein were taken at 0.083, 0.25, 0.5, 1, 2, 4, 6, 8 and 24 hours after the administration, and collected in anticoagulation tube with EDTA-K2. The test compounds were extracted from plasma samples by liquid-liquid extraction. Then quantitative analysis was performed on a triple-quadrupole tandem mass spectrometer using multiple reaction monitoring (MRM). Pharmacokinetic parameters were calculated using a noncompartmental method by WinNonLin 6.3 software.

[2] = Stress testing under high temperature (60° C.); assay type: physicochemical; conditions: for Purity / Change of purity in the high temperature test: 60° C.
[3] = in vivo
[4] = test system: H77 replicon (genotype 1a); experiment: HCV replicon assay, H77 replicon; assay type: cell-based; conditions: Hepatitis C virus
Description: (§1) The purpose of this study was to assess the potential anti-HCV activity of SCY-635 (free base crystalline form A) in the well-characterized genotype-1 replicon. The first reproducible HCV replication system in cell culture (Huh7 hepatoma cell line) was reported in 1999 (Lohmann et al., 1999). The assay utilizes bi-cistronic subgenomic viral RNAs, or replicons, that encode nonstructural proteins and have the cis RNA elements required for autonomous replication. Replicons are self-replicating RNA molecules that contain all of the nucleotide sequences required for HCV replication, transcription, and translation, but are not infectious.
(§2) SCY-635 (free base crystalline form A) was studied in the HCV Replicon assay to evaluate its ability to inhibit HCV genomic replication. […]
(§3) The compound was dissolved in dimethyl sulfoxide (DMSO) and diluted into culture medium at five half-log concentrations, ranging from either 0.02 to 2.0 μM (for SCY-635), or 0.2 to 20 μM (for CsA). […] EC50 and EC90 values were derived from HCV RNA levels assessed as HCV RNA replicon derived LUC activity. […] IC50 and IC90 values were calculated using a colorimetric assay as an indication of cell numbers and cytotoxicity. […]

[5] = test system: con 1b derived full length replicon; experiment: HCV replicon assay, con 1b full length replicon; assay type: cell-based; conditions: Hepatitis C virus
[6] = test system: con 1b derived bi-cistronic replicon; experiment: HCV replicon assay, con 1b bi-cistronic replicon; assay type: cell-based; conditions: Hepatitis C virus, LUC endpoint, 72 hours
Description: as §1, §2, §3

[7] = design: species or system ICR mice; conditions: mouse
Experimental: Pharmacokinetic test of compounds in mice (weigh: 20-25 g, male, age: 45-60 days, three members in each oral group and intravenous group) was shown as follows.
ICR mice received test compounds at a dose of 10 mg/kg by oral gavage or at a dose of 2 mg/kg or 10 mg/kg by tail intravenous injection. Blood samples of orbital vein were taken at 0.083, 0.25, 0.5, 1, 2, 4, 6, 8 and 24 hours after the administration, and collected in anticoagulation tube with EDTA-K2. The test compounds were extracted from plasma samples by liquid-liquid extraction. Then quantitative analysis was performed on a triple-quadrupole tandem mass spectrometer using multiple reaction monitoring (MRM). Pharmacokinetic parameters were calculated using a noncompartmental method by WinNonLin 6.1 software.

[8] = test system: human hepatoma cell line ET (lub ubi neo/ET); experiment: Cytotoxicity in the replicon assay (colorimetric assay of cell numbers); conditions: replicon cells, 72 hours
Description: SCY-635 (free base crystalline form A) was examined in the human hepatoma cell line ET (lub ubi neo/ET), an HCV RNA replicon containing a stable luciferase (LUC) reporter. The HCV RNA replicon ET contains the 5′ end of HCV (with the HCV Internal Ribosome Entry Site (IRES) and the first few amino acids of the HCV core protein) which drives the production of a firefly luciferase (LUC), ubiquitin, and neomycin phosphotransferase (NeoR) fusion protein. Ubiquitin cleavage releases the LUC and NeoR proteins. The EMCV IRES element controls the translation of the HCV […] NS3-NS5. The NS3 protein cleaves the HCV polyprotein to release the mature NS3, NS4A, NS4B, NS5A and NS5B proteins that are required for HCV replication. The 3′ end of the replicon contains the authentic 3′ NTR of HCV. […]
as §3

[9] = Heating experiments with HPLC purity of heated samples; assay type: physicochemical
Experimental: Agilent 1100 HPLC was utilized to measure solubility and purity, method listed in Table 4 and Table 5, respectively. To figure out if a different crystal form of freebase existed at elevated temperature as shown by two endothermic peaks in DSC curve in FIG. 2, heating experiments of the crystalline form A were conducted and HPLC purity of heated samples was also detected. […] Also, lower purity at 150° C. compared with 160° C. was speculated to be related to increasing isothermal time.

[10] = Stress testing under high photolysis (4500 Lux); assay type: physicochemical
[11] = design: species or system SD rats; conditions: rat
Experimental: Pharmacokinetic test of compounds of the invention in SD rats (weigh: 200-250 g, male, age: 2-3 months, three members in each oral group and intravenous group) was shown as follows. Rats received test crystal form A at a dose of 2.5 mg/kg or 5 mg/kg by oral gavage or at a dose of 1 mg/kg by intravenous injection. Blood samples of vein were taken at 0.083, 0.25, 0.5, 1, 2, 5, 7 and 24 hours after the administration, and collected in anticoagulation tube with EDTA-K2. The test compounds were extracted from plasma samples by liquid-liquid extraction. Then quantitative analysis was performed on a triple-quadrupole tandem mass spectrometer using multiple reaction monitoring (MRM). Pharmacokinetic parameters were calculated using a noncompartmental method by WinNonLin 6.3 software.

[12] = monkey, in vivo
physchem = assay type: physicochemical; conditions: water, thermodynamic from solid
Experimental: Agilent 1100 HPLC was utilized to measure solubility and purity, method listed in Table 4 and Table 5, respectively.
Solubility of the crystalline form A was estimated in six solvents at RT. Approximately 2 mg of solids were weighed into each 3-mL glass vial, to which each of the solvents in Table 8 was added in increments of 100 μL until the solids dissolved completely or the total volume reached 2 mL.

cyclophilin A = cyclophilin A (Homo sapiens, UniProt P62937); conditions: background statement; cited from earlier work
Sequence of cyclophilin A (P62937 whole entry, species assumed): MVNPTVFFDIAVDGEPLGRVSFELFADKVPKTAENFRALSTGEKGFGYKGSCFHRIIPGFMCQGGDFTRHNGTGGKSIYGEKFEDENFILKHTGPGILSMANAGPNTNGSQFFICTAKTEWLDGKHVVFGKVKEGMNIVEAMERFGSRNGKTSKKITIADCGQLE

[13] = day 0, listed as The crystalline form A of SCY-635 free base
[14] = listed as crystalline form A of SCY-635 free base
[15] = heated to 150 °C, isothermal 20 min
[16] = heated to 160 °C, isothermal 3 min
[17] = heated to 170 °C, isothermal 2 min
[18] = heated to 180 °C, isothermal 3 min

Compound: C/C=C/C[C@@H](C)[C@@H](O)[C@H]1C(=O)N[C@@H](CC)C(=O)N(C)[C@H](SCCN(C)C)C(=O)N(C)[C@@H](CC(C)(C)O)C(=O)N[C@@H](C(C)C)C(=O)N(C)[C@@H](CC(C)C)C(=O)N[C@@H](C)C(=O)N[C@H](C)C(=O)N(C)[C@@H](CC(C)C)C(=O)N(C)[C@@H](CC(C)C)C(=O)N(C)[C@@H](C(C)C)C(=O)N1C [SCY-635 free base crystalline form A, (3 S,6S,9S,12R,15S,18S,21S,24S,27R,30S,33S)-27-((2-(dimethylamino)ethyl)thio)-30-ethyl-33-((1R,2R,E)-1-hydroxy-2-methylhex-4-en-1-yl)-24-(2-hydroxy-2-methylpropyl)-6,9,18-triisobutyl-3,21-diisopropyl-1,4,7,10,12,15,19,25,28-nonamethyl-1,4,7,10,13,16,19,22,25,28,31-undecaazacyc lotritriacontan-2,5,8,11,14,17,20,23,26,29,32-undecaone]
- Pharmacokinetic properties in vivo [1]: better pharmacokinetic properties
- Oral bioavailability ([1]; in vivo, po): orally bioavailable
- Purity [2, 13]: 98.0%
- Purity ([2]; day 10, listed as The crystalline form A of SCY-635 free base): 98.1%
- Purity ([2]; day 30): 98.0%
- Change of purity in the high temperature test [2, 14]: not changed
- Total impurity and major impurities in stress testing ([2]; high temperature and photolysis conditions): did not increase
- Oral bioavailability ([3]; human, po): orally bioavailable
- Pharmacokinetic behavior [3]: dose-dependent pharmacokinetic behavior
- EC50 [4]: 0.198 µg/mL and 150 nM
- EC90 [4]: 1.38 µM and 1.82 µg/mL
- EC50 [5]: 170 nM and 0.225 µg/mL
- EC90 [5]: 690 nM and 0.912 µg/mL
- EC50 [6]: 100 nM and 0.132 µg/mL
- EC90 [6]: 350 nM and 0.463 µg/mL
- Pharmacokinetic properties in vivo [7]: better pharmacokinetic properties
- Oral bioavailability ([7]; in vivo, po): orally bioavailable
- Cell cytotoxicity in the replicon assay [8]: absence of cell cytotoxicity
- Appearance [9, 15]: Liquated
- Purity [9, 15]: 95.6 Area %
- Solid form after heating (XRPD) ([9]; heated to 160° C.): converted to be amorphous
- Appearance [9, 16]: Liquated
- Purity [9, 16]: 97.6 Area %
- Appearance [9, 17]: Liquated
- Purity [9, 17]: 94.3 Area %
- Appearance [9, 18]: Liquated
- Purity [9, 18]: 88.3 Area %
- Purity ([9]; starting material, not heated): 100.0 Area %
- Purity [10, 13]: 98.0%
- Purity ([10]; day 30): 98.0%
- Change of purity in the high photolysis test [10, 14]: not changed
- Pharmacokinetic properties in vivo [11]: better pharmacokinetic properties
- Oral bioavailability ([11]; in vivo, po): orally bioavailable
- Oral bioavailability [12]: orally bioavailable
- solubility (physchem): < 1100 µg/mL

Compound: C/C=C/C[C@@H](C)[C@@H](O)[C@H]1C(=O)N[C@@H](CC)C(=O)N(C)[C@H](SCCN(C)C)C(=O)N(C)[C@@H](CC(C)(C)O)C(=O)N[C@@H](C(C)C)C(=O)N(C)[C@@H](CC(C)C)C(=O)N[C@@H](C)C(=O)N[C@H](C)C(=O)N(C)[C@@H](CC(C)C)C(=O)N(C)[C@@H](CC(C)C)C(=O)N(C)[C@@H](C(C)C)C(=O)N1C [SCY-635]
- Concentration inhibiting peptidyl prolyl isomerase (PPlase) catalytic activity (cyclophilin A): low nanomolar

Compound: C/C=C/C[C@@H](C)[C@@H](O)[C@H]1C(=O)N[C@@H](CC)C(=O)N(C)[C@H](SCCN(C)C)C(=O)N(C)[C@@H](CC(C)(C)O)C(=O)N[C@@H](C(C)C)C(=O)N(C)[C@@H](CC(C)C)C(=O)N[C@@H](C)C(=O)N[C@H](C)C(=O)N(C)[C@@H](CC(C)C)C(=O)N(C)[C@@H](CC(C)C)C(=O)N(C)[C@@H](C(C)C)C(=O)N1C [The amorphous form of SCY-635 free base]
- Change of purity in the high temperature test [2]: continued to decrease
- Purity ([2]; day 0): 98.2%
- Purity ([2]; day 10): 97.9%
- Purity ([2]; day 50): 97.7%
- Change of purity in the high photolysis test [10]: continued to decrease
- Purity ([10]; day 0): 98.2%
- Purity ([10]; day 10): 98.1%
- Purity ([10]; day 50): 98.0%
